These are literature values, as cited in patent publication US20170172144A1, “ECTOPARASITE FORMULATION” (priority 2014, published 2017).

Where a name gives a salt, the structure may show the parent alone.

The conditions of this data set: qualitative statement.
Abamectin: the aqueous solubility entry is “relatively low solubility”.
With `c1ccc([C@H]2CN3CCSC3=N2)cc1` [levamisole hydrochloride, Levamisole hydrochloride], the aqueous solubility entry is listed as “soluble”.
On to `COC(=O)Nc1nc2ccc([S+]([O-])c3ccccc3)cc2[nH]1` (stereo not drawn) [oxfendazole, Oxfendazole], for which the aqueous solubility entry was “relatively low solubility”.
